Structures can show the parent of a compound that is named as a salt.
Assays:
thoracic aorta = experiment: Vasorelaxant effect on isolated vessels (rat thoracic aorta rings without endothelium, precontracted with noradrenalin); parameters: species or system Wistar rats; settings: for Emax: Rattus norvegicus, maximum inhibition of noradrenalin effect, 10^-8 to 10^-4 M substance, read-out: Maximum Relaxation; for IC50: rat aorta, 10^-7 M noradrenalin contraction
Outline: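 Endothelium-denuded thoracic aorta rings from Wistar rats, held in Krebs-Ringer buffer (pH 7.4, 37 °C, 95% O2/5% CO2) under isometric tension and precontracted with 10^-7 M noradrenalin, received cumulative compound (10^-8 to 10^-4 M). Maximum relaxation given as percent; IC50 calculated when relaxation exceeded 50%.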

anesthetised pigs = experiment: Haemodynamic effects on anesthetised pigs; assay type: in vivo, pigs ("German land" race); settings: pigs, 10,0 mg/kg i.d.
Experimental: Haemodynamic effects of the compounds according to the invention on anesthetised pigs or dogs
Pigs are of "German land" race (20-26 kg) and are used after fasting overnight.
In the case of pigs, sedation, analgesia and anesthesia are induced by ketamine HCl (20 mg/kg i.m.), methonidate HCl (10 mg/kg i.m.), xylacine HCl (3 mg/kg i.m.) and sodium pentobarbitol (25-30 mg/kg as bolus i.v. or 0.16 mg/kg/min as i.v. perfusion).
The pigs or dogs are placed under artificial respiration in ambient air. Analysis of the blood gases (pO2, pCO2) is carried out at regular intervals and oxygen can be supplied via the respirator, if necessary.
The haemodynamic parameters recorded include the left ventricular pressure (LVP; Millar PC350 Tip catheter inserted via the carotid artery), systemic blood pressure (BPs, BPd; full catheter in a femoral artery), the end pressure of the left ventricular diastole (LVEDP), the ventricular contractility (LVPdp/dtmax) and the heart rate (HR).
The haemodynamic variables are recorded continuously for 1 to 3 hours, as a function of the period of action of the compound.
The effects of the compounds studied are shown as the absolute difference with respect to the base value (bv) measured before administration of the compounds and are shown in Table VII (a,b,c).
An antianginal activity is estimated by a fall in the BPs and the LVEDP (fall in venous return).

[1] = test system: isolated pulmonary vessel; experiment: Relaxant activity on blood vessels isolated from guinea pigs (pulmonary artery); settings: Cavia porcellus; guinea pig pulmonary artery, K+ depolarised, Ca2+ contraction; read-out: IC50 (relaxation of 50%)
Experimental: Determination of the relaxant activity of the compounds according to the invention on blood vessels isolated from guinea pigs.
The pulmonary artery of male guinea pigs (350-500 g) is isolated and cut into spiral tracts (1 mm wide, 15 mm long). […] After having removed the calcium from the tissues (Tyrode without calcium and 0.2 mM EDTA), the tracts are depolarised in the presence of a concentrated solution of K^+ ions (40 mM), which is produced by replacing the NaCl by equimolar amounts of KCl, and a contraction of long duration is then induced by Ca^2+ ions (0.5 mM).
The compounds studied are then introduced into the organ cell in increasing concentrations.
Each compound is tested on at least four vessel spiral tracts.

anesthetised dogs = experiment: Haemodynamic effects on anesthetised dogs; assay type: in vivo, dogs (labrador/harrier cross); settings: dogs
Outline: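 Anaesthetised labrador/harrier dogs (16–26 kg; pentobarbital induction then 8 mg/kg/h i.v. infusion, artificial respiration) given compound i.d. or i.v. after ~45 min equilibration. LVP, systolic/diastolic BP, LVEDP, LVdP/dtmax and HR recorded continuously 1–3 h; values are absolute change from pre-dose baseline.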

SMILES | IC50 (thoracic aorta) | Emax (thoracic aorta) | BPs (min), period of action (anesthetised pigs) | BPs, difference to base value (anesthetised pigs) | LVRDP (min), period of action (anesthetised pigs) | LVRDP, difference to base value (anesthetised pigs) | other results
CC(=O)NCSC[C@H](NC(=O)OC(C)(C)C)C(=O)N[C@H]1CO[C@H]2[C@@H]1OC[C@@H]2O[N+](=O)[O-] [Compound 33, S-[(Acetylamino)methyl]-N-[(t-butoxy)carbonyl]-L-cysteine amide of 5-amino-5-deoxy-2-O-nitro-1,4:3,6-dianhydro-L-iditol] | > 100 µM | 50% | > 60 min | -12 mmHg | > 60 min | -3,0 mmHg | 
O=C(CNC(=O)c1ccccc1SCc1ccccc1)N[C@H]1CO[C@H]2[C@@H]1OC[C@@H]2O[N+](=O)[O-] [Compound 47, 5-[[[[2-[(Phenylmethyl)thio]benzoyl]amino]-1-oxoethyl]amino]-5-deoxy-2-O-nitro-1,4:3,6-dianhydro-L-iditol] |  |  | > 120 min | -10 mmHg | > 90 min | -1,0 mmHg | IC50 [1]: 2000 nM
CC(C)(C)OC(=O)N1CSC[C@H]1C(=O)NCC(=O)O[C@H]1CO[C@H]2[C@@H]1OC[C@H]2O[N+](=O)[O-] [Compound 72, 2-O-[2-[[(3-t-butoxycarbonyl-4-L-thiazolidinyl)carbonyl]amino]-1-oxoethyl]-5-O-nitro-1,4:3,6-dianhydro-D-glucitol] | 64 µM | 67% |  |  |  |  | BPs (min), period of action (anesthetised dogs; 10 mg/kg i.v.): 0 min; BPs, difference to base value (anesthetised dogs; 10 mg/kg i.v.): 0 mmHg; LVEDP (min), period of action (anesthetised dogs; 10 mg/kg i.v.): 0 min; LVEDP, difference to base value (anesthetised dogs; 10 mg/kg i.v.): 0,0 mmHg
O=C(CNC(=O)[C@@H]1CSCN1)O[C@H]1CO[C@H]2[C@@H]1OC[C@H]2O[N+](=O)[O-] [Compound 73, 2-O-[2-[[(4-L-thiazolidinyl)carbonyl]amino]-1-oxoethyl]-5-O-nitro-1,4:3,6-dianhydro-D-glucitol monohydrochloride] | 53 µM | 66% |  |  |  |  | BPs (min), period of action (anesthetised dogs; 3 mg/kg i.v.): 60 min; BPs, difference to base value (anesthetised dogs; 3 mg/kg i.v.): -15 mmHg; LVEDP (min), period of action (anesthetised dogs; 3 mg/kg i.v.): 60 min; LVEDP, difference to base value (anesthetised dogs; 3 mg/kg i.v.): -2,0 mmHg
CC(C)(C)OC(=O)N1CSC[C@H]1C(=O)N1CSC[C@H]1C(=O)N[C@H]1CO[C@H]2[C@@H]1OC[C@@H]2O[N+](=O)[O-] [Compound 77, 5-[[[(4R)-N-[(3-t-butoxycarbonyl-4-L-thiazolidinyl)carbonyl]-4-thiazolidinyl]carbonyl]amino]-5-deoxy-2-O-nitro-1,4:3,6-dianhydro-L-iditol] | 40 µM | 97% |  |  |  |  | BPs (min), period of action (anesthetised dogs; 3 mg/kg i.d.): > 180 min; BPs, difference to base value (anesthetised dogs; 3 mg/kg i.d.): -35 mmHg; LVEDP (min), period of action (anesthetised dogs; 3 mg/kg i.d.): > 180 min; LVEDP, difference to base value (anesthetised dogs; 3 mg/kg i.d.): -2,0 mmHg
O=C(N[C@H]1CO[C@H]2[C@@H]1OC[C@@H]2O[N+](=O)[O-])[C@@H]1CSCN1C(=O)[C@@H]1CSCN1 [Compound 78, 5-[[[(4R)-N-[(4-L-thiazolidinyl)carbonyl]-4-thiazolidinyl]carbonyl]amino]-5-deoxy-2-O-nitro-1,4:3,6-dianhydro-L-iditol monohydrochloride] | 20 µM | 89% |  |  |  |  | BPs (min), period of action (anesthetised dogs; 3 mg/kg i.d.): 150 min; BPs, difference to base value (anesthetised dogs; 3 mg/kg i.d.): -13 mmHg; LVEDP (min), period of action (anesthetised dogs; 3 mg/kg i.d.): 90 min; LVEDP, difference to base value (anesthetised dogs; 3 mg/kg i.d.): -1,0 mmHg

The next lines start with results.

IC50 (thoracic aorta) | SMILES | Emax (thoracic aorta) | BPs (min), period of action (anesthetised pigs) | BPs, difference to base value (anesthetised pigs) | LVRDP (min), period of action (anesthetised pigs) | LVRDP, difference to base value (anesthetised pigs) | other results
25 µM | CC1(C)SC[C@@H](C(=O)N[C@H]2CO[C@H]3[C@@H]2OC[C@@H]3O[N+](=O)[O-])N1C=O [Compound 31, 5-[[(3-Formyl-2,2-dimethyl-4-L-thiazolidinyl)carbonyl]amino]-5-deoxy-2-O-nitro-1,4:3,6-dianhydro-L-iditol monohydrochloride] | 83% | > 60 min | -15 mmHg | > 60 min | -2,0 mmHg | 
> 100 µM | CC(=O)NCSC[C@H](N)C(=O)N[C@H]1CO[C@H]2[C@@H]1OC[C@@H]2O[N+](=O)[O-] [Compound 34, S-[(Acetylamino)methyl]-L-cysteine amide of 5-amino-5-deoxy-2-O-nitro-1,4:3,6-dianhydro-L-iditol monohydrochloride] | 25% | > 180 min | -22 mmHg | > 180 min | -4,0 mmHg | 
